For 1 molecule, IC50 results are on record in US10980890B2, “Compounds comprising self-immolative group” (LegoChem Biosciences, Inc., priority 2014, dated 2021).

Common to all, as to assay: Anti-proliferation assay of ADC (SRB)
What all share (format): cell-based, human
Details in all cases: 72 hours, drug

For test [1], the system named is MCF-7 (HER2-negative or -normal) breast cancer cell line. How it is done: (§1) Anti-cell proliferation activities of antibodies, a drug, and ADC(s) illustrated in the following Table 2 on cancer cell lines were measured.
(§2) As the cancer cell lines, commercialized human breast cancer cell lines MCF-7 (HER2-negative or -normal) and SK-Br3 (HER2 positive), and a commercialized ovarian cancer cell lines SK-OV3 (HER2 positive) were used. As the drug, MMAF was used.
(§3) After each of the cancer cell lines was seeded in a 96-well plate at 10,000 cells/each well and cultured for 24 hours, the antibody and ADC were treated at a concentration of 0.01563-2 μg/ml (2 times serial dilution), and the drug was treated at a concentration of 4-500 nM (2 times serial dilution). After 72 hours, the numbers of living cells were quantified using a Sulforhodamine B (SRB) dye.

Test [2] relates to SK-OV3 (HER2 positive) ovarian cancer cell line. The protocol: as §1, §2, §3
Test [3] deals with SK-Br3 (HER2 positive) breast cancer cell line. The protocol:
as §1, §2
After 72 hours, the numbers of living cells were quantified using a Sulforhodamine B (SRB) dye.

Usually pIC50 stands for the negative decadic logarithm of the IC50, by convention in mol/L. Lower therefore signals a large IC50.

The structures appear in SMILES notation. pIC50: −log10 of the molar value. Square brackets hold non-standard residues; d marks the D form. Peptide text beside a SMILES is read from it. Dolaproine = CO[C@@H]([C@@H]1CCCN1)[C@@H](C)C(=O)O; Dil = CC[C@H](C)[C@H](NC)[C@@H](CC(=O)O)OC; NMeV = CN[C@H](C(=O)O)C(C)C

Turning to `CC[C@H](C)[C@@H]([C@@H](CC(=O)N1CCC[C@H]1[C@H](OC)[C@@H](C)C(=O)N[C@@H](Cc1ccccc1)C(=O)O)OC)N(C)C(=O)[C@@H](NC(=O)[C@@H](NC)C(C)C)C(C)C` [MMAF, monomethylauristatin F] (H-[NMeV]V[Dil][Dolaproine]F-OH), the pIC50 in test [1] is 6.85; in test [2] it was 6.64; in test [3], 6.87.
